According to patent US4430263A, “Hapten-inhibitor immunoassay” (Abbott Laboratories, priority 1980, dated 1984):

Test system: sheep T4 antibody (gamma globulin / IgG fraction from sheep antiserum)
Experiment: Binding constant of T4 antibody binding sites (footnote to Table I, antibody modulation of STI-T4)
Settings: approximately 7.4 × 10^-8 M antibody binding sites; gamma globulin chromatographically isolated from sheep T4 antibody
Method: A working solution of 2.0 mg/ml gamma globulin (chromatographically isolated from sheep T4 antibody) is prepared in 0.1 M HEPES (N-2-hydroxyethylpiperazine-N'-2-ethanesulfonic acid) buffer, pH 8.0, containing 0.1% gelatin. A stock solution of the STI-T4 (soybean trypsin inhibitor-thyroxine) conjugate (8×10^-7 M) is also prepared in HEPES-gelatin buffer, pH 8.0. A trypsin stock solution is made at 1×10^-7 M in dilute HCl, pH 3.0, and stored at 4° C. The trypsin working reagent is diluted to a concentration of 8.2×10^-8 M with HCl gelatin, pH 3.0. Equal volumes (50 μl) of the thyroxine STI conjugate and antibody are mixed and incubated at room temperature for 5 minutes. Trypsin is then added to the mixture, incubated for 30 seconds, and a 25 μl portion of the assay mixture diluted into a cuvette with 250 μl of substrate (0.5 mM benzoylphenylalanylvalyl arginine p-nitroaniline in 0.05 M Tris pH 8.1 with 0.01 M CaCl2). The change in absorbance with time (t=5.5 minutes less t=0.5 minutes) is recorded using a Bichromatic Analyzer equipped with a 380/450 mμ filter. The following table gives the results for a suitable conjugate prepared in Example I.
A working solution of 1 mg/ml anti-T4 IgG (from sheep antiserum) is prepared in barbital buffer with gelatin. The approximate concentration of binding sites from […] analysis is 1.2×10^-7 M.

## N[C@@H](Cc1cc(I)c(Oc2cc(I)c(O)c(I)c2)c(I)c1)C(=O)O [thyroxine]
  K (antibody binding sites): ~1.3 × 10^9
